{"source": "patent US8765464B2", "about": "“Kit for culturing cells comprising tube with flat wall, extracellular matrix and culture medium” (Kurashiki Boseki Kabushiki Kaisha, priority 2001, dated 2014)", "key": {"[1]": {"tested_on": "C-1, A-549, MKN-28, HFL-1, WI-38 cell lines and Lung-k primary lung cancer cells", "experiment": "Influence of vancomycin amount upon anticancer agent sensitivity test results", "assay_type": "cell-based, human", "settings": "vancomycin not more than 3.0 mg/ml added in the preliminary culture step; Taxol, Taxotere, Gemcitabine, Navelbine", "text": "(§1) As to the test material and the number of cells as seeded (test material/number of cells as seeded), the following were used: • C-1 (human colon cancer cell line)/1×10^5 cells/well • A-549 (human lung cancer cell line)/1×10^5 cells/well • MKN-28 human stomach cancer cell line)/1×10^5 cells/well • HFL-1 and WI-38 (human fibroblast cells line)/1×10^5 cells/well • Lung-k human primary lung cancer cells)/5×10^5 cells/well (in the preliminary culture step) or 2×10^5 cells/well (in the proliferative culture step)\n(§2) The culture medium in the preliminary culture step was a culture medium as used in Example 1, and only the concentrations of the vancomycin produced by Wako Pure Chemicals Co., Ltd.) therein were settled in the following conditions: 0.1 mg/ml, 0.5 mg/ml, 1.0 mg/ml, 1.5 mg/ml, 2.0 mg/ml, 2.5 mg/ml, 3.0 mg/ml, 4.0 mg/ml, and 5.0 mg/ml, and tests were carried out in each condition. […]\n(§3) (5) The resultant test plate is quantitatively analyzed with an image analyzer, and then the unfavorable influence upon the cell proliferativity and the anticancer agent sensitivity test results (antitumor effect T/C (%): relative proliferation ratio T/C (%) between a group non-treated with anticancer agents (C) and a group treated with anticancer agents (T), in the case where the ratio is not more than 50%, it is defined as having a sensitivity.) are observed. […]"}, "[2]": {"tested_on": "Lung-k human primary lung cancer cells", "experiment": "Confirmation test of cell toxicity according to vancomycin amount: preliminary culture step, primary cells", "assay_type": "cell-based", "settings": "human primary culturing cells, after 48 hours from the beginning of the culture", "method": "(§4) Specifically, it is confirmed whether the vancomycin in the culture medium of the preliminary culture step has a unfavorable influence upon the cell proliferativity in the preliminary culture step, the cell proliferativity in the proliferative culture step, and the anticancer agent sensitivity test results or not, and then the following test was carried out. Herein, the unfavorable influence means such an influence as causes to decrease the cell proliferativity and success rate of the anticancer agent sensitivity test.\n(§5) As to the test material and the number of cells as seeded (test material/number of cells as seeded), the following were used: • C-1 (human colon cancer cell line)/1×10^5 cells/well • A-549 (human lung cancer cell line)/1×10^5 cells/well • MKN-28 human stomach cancer cell line)/1×10^5 cells/well • HFL-1 and WI-38 (human fibroblast cells line)/1×10^5 cells/well • Lung-k human primary lung cancer cells)/5×10^5 cells/well (in the preliminary culture step) or 2×10^5 cells/well (in the proliferative culture step) […]\n(§6) […] After the cells were counted with a blood-cell counter board, the cell number per 1 ml of the culture medium was calculated, and the cell proliferativity in the preliminary culture step was observed."}, "[3]": {"tested_on": "C-1, A-549, MKN-28, HFL-1 and WI-38 cell lines", "experiment": "Confirmation test of cell toxicity according to vancomycin amount: cell proliferativity in preliminary culture step, cell lines", "assay_type": "cell-based, human", "settings": "various cells, after 48 hours from the beginning of the culture", "method": "as §4, §5, §6"}, "[4]": {"tested_on": "C-1, A-549, MKN-28, HFL-1, WI-38 cell lines and Lung-k primary lung cancer cells", "experiment": "Confirmation test of cell toxicity according to vancomycin amount: cell proliferativity in proliferative culture step", "assay_type": "cell-based, human", "settings": "vancomycin not more than 3.0 mg/ml added in the preliminary culture step; after 7 days culture", "text": "as §1, §2, §3"}}, "note": "Counter-ions that a name gives are not always drawn."}
{"compound": "CN[C@H](CC(C)C)C(=O)N[C@H]1C(=O)N[C@@H](CC(N)=O)C(=O)N[C@H]2C(=O)N[C@H]3C(=O)N[C@H](C(=O)N[C@H](C(=O)O)c4cc(O)cc(O)c4-c4cc3ccc4O)[C@H](O)c3ccc(c(Cl)c3)Oc3cc2cc(c3O[C@@H]2O[C@H](CO)[C@@H](O)[C@H](O)[C@H]2O[C@H]2C[C@](C)(N)[C@H](O)[C@H](C)O2)Oc2ccc(cc2Cl)[C@H]1O", "note": "[vancomycin, vancomycin hydrochloride]", "values": [{"measurement": "unfavorable influence upon the anticancer agent sensitivity test results (antitumor effect T/C (%))", "setting": "[1]", "result": "no unfavorable influence"}, {"measurement": "vancomycin concentration at which the cell number was maintained and cell toxicity (cells-killing action) was not observed", "setting": "[2]", "result": "not more than 3.0 mg/ml"}, {"measurement": "vancomycin concentration at which the cell proliferation was as good as without vancomycin", "setting": "[3]", "result": "not more than 2.0 mg/ml"}, {"measurement": "unfavorable influence upon the cell proliferativity in the proliferative culture step", "setting": "[4]", "result": "not found"}]}
